Assays:
sixty human tumour cells = assay: NCI in vitro anticancer screen, SRB protein assay, mean graph midpoints; assay type: cell-based; conditions: human tumour cell lines, 48 h continuous drug exposure
Protocol: Biological Activity: some of in vitro biological activity studies were carried out at the National Cancer Institute, Maryland, USA.
5e was evaluated for in vitro anticancer activity against sixty human tumour cells derived from nine cancer types (leukemia, non-small-cell lung, colon, CNS, melanoma, ovarian, prostate, and breast cancer) as shown in (Table 1 and 2). For the compound, dose response curves for each cell line were measured at a minimum of five concentrations at 10 fold dilutions. A protocol of 48 h continuous drug exposure was used and a sulforhodamine B (SRB) protein assay was used to estimate cell viability or growth. The concentration causing 50% cell growth inhibition (GI50), total cell growth inhibition (TGI 0% growth) and 50% cell death (LC50, −50% growth) compared with the control was calculated.

[1] = system: duplex-form calf thymus DNA (CT-DNA); assay: Thermal denaturation studies with CT-DNA; assay type: binding
Protocol: Compounds were subjected to thermal denaturation studies with duplex-form calf thymus DNA (CT-DNA) using an adaptation of a reported procedure. Working solutions in aqueous buffer (10 mM NaH2PO4/Na2HPO4, 1 mM Na2EDTA, pH 7.00+0.01) containing CT-DNA (100 μm in phosphate) and the PBD (20 μm) were prepared by addition of concentrated PBD solutions in DMSO to obtain a fixed [PBD]/[DNA] molar ratio of 1:5. The DNA-PBD solutions were incubated at 37° C. for 0, 18, and 36 h prior to analysis. Samples were monitored at 260 nm using a Beckman DU-7400 spectrophotometer fitted with high performance temperature controller, and heating was applied at 1° C. min−1 in the 40-90° C. range. DNA helix coil transition temperatures (Tm) were obtained from the maxima in the (dA260)/dT derivative plots. Results are given as the mean ±standard deviation from three determinations and are corrected for the effects of DMSO co-solvent using a linear correction term. Drug-induced alterations in DNA melting behaviour are given by: ΔTm=Tm(DNA+PBD)−Tm (DNA alone), where the Tm value for the PBD-free CT-DNA is 69.0±0.01.

[2] = system: selected human cancer cell lines; assay: In vitro cytotoxicity in selected human cancer cell lines (overall statements); assay type: cell-based; conditions: Table 3
Protocol: (§1) In vitro evaluation of cytotoxic activity. The compound 5a, 5b, 5g, 5i and 5j were evaluated for in vitro anticancer activity against nine human tumour cells derived from six cancer types (colon, prostate, oral, lung, cervix and breast cancer) as shown in Table 3. […] Compounds 5a, 5b, 5g, 5i and 5j have been evaluated for their in vitro cytotoxicity in selected human cancer cell lines of colon (Colo205), lung (Hop-62), cervix (SiHa), prostate (DU145, PC3), oral (DWD, HT1080), and breast (MCF7, Zr-75-1) origin. A protocol of 48 h continuous drug exposure has been used and an […] has been used to estimate cell viability or growth. […] Compound 5a, Colo205 cell growth by 83%, DU145 cell growth by 84%, DWD cell growth by 70%, Hop62 cell growth by 87%, HT1080 cell growth by 80%, MCF7 cell growth by 73%, PC3 cell growth by 91%, SiHa cell growth by 67%, Zr-75-1 cell growth by 76%. Compound 5b, Colo205 cell growth by 20%, DU145 cell growth by 64%, DWD cell growth by 70%, Hop62 cell growth by 78%, HT1080 cell growth by 72%, MCF7 cell growth by 69%, PC3 cell growth by 72%, SiHa cell growth by 20%, Zr-75-1 cell growth by 20%. Compound 5g, Colo205 cell growth by 50%, DU145 cell growth by 20%, DWD cell growth by 94%, Hop62 cell growth by 84%, HT1080 cell growth by 94%, MCF7 cell growth by 71%, PC3 cell growth by 86%, SiHa cell growth by 74%, Zr-75-1 cell growth by 72%. Compound 5i, DU145 cell growth by 42%, Hop62 cell growth by 60%, HT1080 cell growth by 70%, Compound 5j, Colo205 cell growth by 44%, DU145 cell growth by 57%, DWD cell growth by 65%, Hop62 cell growth by 53%, HT1080 cell growth by 71%, PC3 cell growth by 81%, SiHa cell growth by 77%.

Zr-75-1 (breast) = assay: In vitro cytotoxicity, 48 h continuous drug exposure; assay type: cell-based, human
Protocol: as §1

Hop62 (lung) = assay: as above; assay type: cell-based, human
Protocol: as §1

DWD (oral) = assay: as above; assay type: cell-based, human
Protocol: as §1

HT1080 (oral) = assay: as above; assay type: cell-based, human
Protocol: as §1

PC3 (prostate) = assay: as above; assay type: cell-based, human
Protocol: as §1

SiHa (cervix) = assay: as above; assay type: cell-based, human
Protocol: as §1

Colo205 (colon) = assay: as above; assay type: cell-based, human
Protocol: as §1

MCF7 (breast) = assay: as above; assay type: cell-based, human
Protocol: as §1

DU145 (prostate) = assay: as above; assay type: cell-based, human
Protocol: as §1

[3] = relative to untreated control cells

## COc1cc2c(cc1OCCCCCOc1c(C)cc(Cl)cc1C(=O)c1ccccc1)N=C[C@@H]1CCCN1C2=O [Compound 5f, 7-methoxy-8-{3-[2-benzoyl-(4-chloro-6-methylphenyloxy)pentoxy]}-(11aS)-1,2,3,11a-tetrahydro-5H-pyrrolo[2,1-c][1,4]benzodiazepine-5-one]
Sixty human tumour cells
  Log10GI50 mean graph midpoint (MG_MID): −6.47
  Log10LC50 mean graph midpoint (MG_MID): −4.89
  Log10TGI mean graph midpoint (MG_MID): −5.24

## 7-methoxy-8-{3-[2-benzoyl-(4-chlorophenyloxy)propoxy]}-(11aS)-1,2,3,11a-tetrahydro-5H-pyrrolo[2,1-c][1,4]benzodiazepine-5-one [Compound 5a]
[1]; [PBD]:[DNA] 1:5, CT-DNA 100 μM, ligand 20 μM, pH 7.00, 0 h
  ΔTm after incubation at 37° C. for 0 h: 1.4 °C
[1]; [PBD]:[DNA] 1:5, CT-DNA 100 μM, ligand 20 μM, pH 7.00, 18 h
  ΔTm after incubation at 37° C. for 18 h: 1.7 °C
[1]; [PBD]:[DNA] 1:5, CT-DNA 100 μM, ligand 20 μM, pH 7.00, 36 h
  ΔTm after incubation at 37° C. for 36 h: 2.2 °C
[1]; incubation at 37° C.
  course of ΔTm over 0 hr, 18 hr and 36 hr (in words): gradually increased
[2]
  cytotoxicity against some cancer cell lines (in words): promising cytotoxicity
Zr-75-1 (breast); Zr-75-1, Breast
  Activity status in terms of IC50 value: 24 µg/mL
Zr-75-1 (breast); Zr-75-1, relative to untreated control cells
  cell growth by %: 76%
Hop62 (lung); Hop62, Lung
  Activity status in terms of IC50 value: 13 µg/mL
Hop62 (lung); Hop62, relative to untreated control cells
  cell growth by %: 87%
DWD (oral); Oral
  Activity status in terms of IC50 value: 30 µg/mL
DWD (oral); [3]
  cell growth by %: 70%
HT1080 (oral); HT1080, Oral
  Activity status in terms of IC50 value: 20 µg/mL
HT1080 (oral); HT1080, relative to untreated control cells
  cell growth by %: 80%
PC3 (prostate); PC3, Prostate
  Activity status in terms of IC50 value: 9 µg/mL
PC3 (prostate); PC3, relative to untreated control cells
  cell growth by %: 91%
SiHa (cervix); Cervix
  Activity status in terms of IC50 value: 43 µg/mL
SiHa (cervix); [3]
  cell growth by %: 67%
Colo205 (colon); Colo205, Colon
  Activity status in terms of IC50 value: 17 µg/mL
Colo205 (colon); Colo205, relative to untreated control cells
  cell growth by %: 83%
MCF7 (breast); MCF7, Breast
  Activity status in terms of IC50 value: 27 µg/mL
MCF7 (breast); MCF7, relative to untreated control cells
  cell growth by %: 73%
DU145 (prostate); DU145, Prostate
  Activity status in terms of IC50 value: 16 µg/mL
DU145 (prostate); DU145, relative to untreated control cells
  cell growth by %: 84%

— patent publication US7528128B2, “Pyrrolo[2,1-C][1,4]benzodiazepine hybrids and a process for the preparation thereof” (Council of Scientific & Industrial Research, priority 2006, dated 2009)
